Data set [1] has as its system SK-HEP-1 cells overexpressing hclk-2. In words: Cell death assay (trypan blue exclusion) in SK-HEP-1 cells overexpressing hclk-2. Type of data set: cell-based, human. The settings on record: SK-HEP-1 cells overexpressing hclk-2 vs control cells. The protocol:
(§1) FIG. 11 illustrates the affect of hclk-2 overexpression on sensitivity to menadione, t-butyl hydroperoxide and hydroxyurea of SK-HEP-1 cells. SK-HEP-1 cells overexpressing hclk-2 and control cells were seeded at 1×10^5/well in a 6-well dish and were treated with γ-rays or apoptosis-inducing compounds for various lengths of time (see Table 7). Cells were then trypsinized, diluted and stained with 0.2% trypan blue. Cell viability was expressed as the percentage of cells excluding trypan blue. The data shown are the means of triplicate experiments. When cells were treated with menadione, t-butyl hydroperoxide or hydroxyurea, the viability of SK-HEP-1 cells overexpressing hclk-2 (44%, 30%, 40% respectively) was dramatically lower than that of the control cells (70%, 63%, 76%), respectively.
(§2) To determine the occurrence of cell death, cells were seeded at 1×10^5 in 6-well dishes. The next day the cells were treated by γ-ray (20 Gy) and counted 72 hr later. A series of different apoptosis-inducing agents were also investigated and the cells were analyzed at various times following treatment (see Table 7). Cell viability was measured by the trypan blue exclusion method.

Data set [2] is described as follows: Cell death assay (trypan blue exclusion) in SK-HEP-1 control cells. Type of data set: cell-based. The settings on record: human; SK-HEP-1 control cells (empty vector); concentration and time per Table 7: menadione 12 μM 24 hr, t-butyl hydroperoxide 40 μM 48 hr, hydroxyurea 0.6 mM 96 hr; means of triplicate; read-out: Cell viability (percentage of cells excluding trypan blue). On the procedure:
as §1, §2

The nature of data set [3]: Cell death assay (trypan blue exclusion) in SK-HEP-1 cells overexpressing hclk-2. It is filed as cell-based, human. The settings on record: human; SK-HEP-1 cells overexpressing hclk-2; concentration and time per Table 7: menadione 12 μM 24 hr, t-butyl hydroperoxide 40 μM 48 hr, hydroxyurea 0.6 mM 96 hr; means of triplicate; read-out: Cell viability (percentage of cells excluding trypan blue). The protocol: as §1, §2

Here are results for four compounds from patent publication US20030199002A1, “Clk-2 nucleic acids, polypeptides and uses thereof” (priority 2000, published 2003).

For the compound `COc1cc([C@@H]2c3cc4c(cc3[C@@H](O[C@@H]3O[C@@H]5CO[C@@H](C)O[C@H]5[C@H](O)[C@H]3O)[C@H]3COC(=O)[C@H]23)OCO4)cc(OC)c1O` [etoposide, Etoposide], the “Sensitivity of cells overexpressing hclk-2 to the apoptosis-inducing agent, compared to control cells” value (“Sensitivity … compared to control cells” for short) in data set [1] is listed as “no evidence to suggest that an increased sensitivity”.

Regarding `NC(=O)NO` [hydroxyurea, Hydroxyurea], the “Sensitivity … compared to control cells” value in data set [1] is recorded as “also hypersensitive”.

With `CC1=CC(=O)c2ccccc2C1=O` [menadione, Menadione], the “Sensitivity … compared to control cells” value in data set [1] is “specifically hypersensitive”.

Turning to `CC(C)(C)OO` [t-butyl hydroperoxide, t-Butyl hydroperoxide], the values for the viability in data set [2] and in data set [3] were 63% and 30%, respectively. In addition, the “Sensitivity … compared to control cells” value in data set [1] is reported as “specifically hypersensitive”.
